{
  "source": "patent US20070197560A1",
  "about": "“cGMP PDE 5 inhibitors for inhalation in the treatment of sexual dysfunction” (priority 1998, published 2007)",
  "key": {"[1]": {"assay": "rodent pharmacokinetic model simulating inhalation: intratracheal dry powder blend with lactose", "settings": "rat", "method": "(§1) A calculated nominal dose of 8.4 μmol/kg is administered to each of 3 male Wistar:Han rats by administration directly into the trachea via the mouth and vocal chords from a Penn-Century dry powder delivery device actuated via a 2 ml syringe containing air as a propellent.\n(§2) A calculated nominal dose of 2.1 μmol/kg is administered to each of 4 male Wistar:Han rats by administration directly into the trachea via the mouth and vocal chords from a Penn-Century dry powder delivery device actuated via a 2 ml syringe containing air as a propellent.\n(§3) Each of 3 animals receives a dose equivalent to 2.1 μmol/kg."}, "[2]": {"design": "species or system Male Wistar:Han rats", "settings": "rat, in vivo, inhaled or intranasal, 2.1 umol/kg, pH 6", "description": "Male Wistar:Han rats used for this model are supplied by Harlan UK Ltd at 105 days of age and approximately 350 g weight. They are fed ad libitum with a standard laboratory diet and housed under controlled conditions (12 hours light/dark cycle; 20° C.) for at least one week prior to the experiment.\nCompound A is dissolved, at a concentration of 1.75 mg/ml in 0.9% saline which has been acidified with 1M aqueous HCI (5 μl), giving a clear solution of pH 5.0. To the solution is added 1M aqueous NaOH (2μl) to increase the pH to 6.0, resulting in a very fine suspension. […] Each animal receives a 2.1 μmol/kg dose in 200 μl of suspension.\nThe following surgical procedure is used to prepare the animals for the experiment: the animals are anaesthetised, initially with 4% halothane, maintained with 2% halothane, both in a 1:1 oxygen: nitrous oxide mixture carrier. The anaesthetised animals are shaved on their ventral neck and craniodorsal back, then swabbed with a solution of 5% Hibitane in a 70% solution of ethanol in water. […] The patency of the cannula is assessed immediately before experimentation. […]\nWithdrawn blood samples are analysed as follows: […]"}, "in vivo": {"assay": "in vivo", "settings": "male, Wistar:Han, rat, inhaled or intranasal, 2.1 umol/kg", "method": "as §1, §2, §3"}},
  "data": [
    {"smiles": "CCCc1nn(C)c2c(=O)[nH]c(-c3cc(S(=O)(=O)N4CCN(C)CC4)ccc3OCC)nc12", "note": "[Compound A, 5-[2-ethoxy-5-(4-methylpiperazinylsulfonyl)phenyl]-1-methyl-3-n-propyl-1,6-dihydro-7H-pyrazolo[4,3-d]pyrimidin-7-one]", "values": [
      {"measurement": "time to peak plasma concentration (absorption time Tmax)", "setting": "[1]; citrate salt micronised to less than 5 μM, diluted by weight to 40% in lactose, nominal dose 8.4 μmol/kg, 3 rats", "result": 2, "unit": "min"},
      {"measurement": "Tmax (absorption time; time to maximum concentration in plasma)", "setting": "[2]", "result": 5, "unit": "min"}
    ]},
    {"smiles": "CCOc1cnccc1-c1nc2n(C3CCCC3)[nH]c(CC)c-2c(=O)n1", "note": "[Compound C, 1-cyclopentyl-3-ethyl-6-(3-ethoxy-4-pyridyl)-pyrazolo[3,4-d]pyrimidin-4-one]", "values": [
      {"measurement": "Tmax", "setting": "in vivo", "result": "2 to 20", "unit": "min"}
    ]},
    {"smiles": "CCCOc1ccc(NS(C)(=O)=O)cc1-c1nc2c(c(C)nn2C)c(=O)[nH]1", "note": "[Compound D, 1,3-dimethyl-6-(2-propoxy-5-methanesulfonylamidophenyl)-1,5-dihydropyrazolo[3,4-d]pyrimidin-4-one]", "values": [
      {"measurement": "absorption time T max", "setting": "[1]; 6% blend with lactose, 2.1 μmol/kg", "result": 10, "unit": "min"}
    ]}
  ]
}
